This is an account of results in PubChem BioAssay AID1963858 (Molecular Pharmacology Branch, DTP, NCI, 2024).

The experiment has as its system HOP-62 multicell spheroids with HUVEC/MSC, viability. The experiment in a line: Anticancer human tumor HOP-62 cell line growth inhibition [KRAS2].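 As to all read-outs here: viability read after a week of compound exposure.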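 As to viability, T/C: 100% = DMSO vehicle-treated spheroids.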 The settings on record: for viability, T/C: stronger effect = lower value. The method in brief:
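Combination screen of spheroid viability in tumor-cell co-cultures with endothelial (HUVEC) and mesenchymal stem cell stroma. Each agent was tested in half-log dilutions, topping at clinical Cmax or at 10 microM without a known Cmax.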

Several values for one entry are separate records, joined by “and”; a condition that tells them apart may be missing. Equal entries are not always repeated.

For `Cn1ncnc1[C@H]1c2n[nH]c(=O)c3cc(F)cc(c23)N[C@@H]1c1ccc(F)cc1` + CNCc1ccccc1-c1csc(C(C)Nc2nc(C)nc3cc(OC)c(OC)cc23)c1, the half-inhibitory concentration (IC50) (curve of first compound, second compound 0.1 µM) was more than 0.1 µM; the IC50 (curve of first compound, second compound 0.316 µM) is more than 0.1 µM; the IC50 (curve of first compound, second compound 1 µM) is more than 0.1 µM; the IC50 (curve of first compound, second compound 3.16 µM) is less than 0.000316 µM; the IC50 (curve of first compound, second compound 10 µM) is less than 0.000316 µM. For the same compound, the viability, T/C by setting is: (second compound 0.1 µM, first compound 0.000316 µM) 98.2%; (second compound 0.1 µM, first compound 0.001 µM) 92.1%; (second compound 0.1 µM, first compound 0.00316 µM) 91.8%; (second compound 0.1 µM, first compound 0.01 µM) 97.1%; (second compound 0.1 µM, first compound 0.0316 µM) 86.5%; (second compound 0.1 µM, first compound 0.1 µM) 71%. Further, the viability, T/C reads like this: (second compound 0.316 µM, first compound 0.000316 µM) 101%; (second compound 0.316 µM, first compound 0.001 µM) 93.9%; (second compound 0.316 µM, first compound 0.00316 µM) 89.4%; (second compound 0.316 µM, first compound 0.01 µM) 83.7%; (second compound 0.316 µM, first compound 0.0316 µM) 79.3%; (second compound 0.316 µM, first compound 0.1 µM) 74.9%. The viability, T/C is, setting by setting: (second compound 1 µM, first compound 0.000316 µM) 69.2%; (second compound 1 µM, first compound 0.001 µM) 73%; (second compound 1 µM, first compound 0.00316 µM) 81.2%; (second compound 1 µM, first compound 0.01 µM) 78.1%; (second compound 1 µM, first compound 0.0316 µM) 68.9%; (second compound 1 µM, first compound 0.1 µM) 53.7%. The viability, T/C was 0.2% (second compound 3.16 µM, first compound 0.000316 µM); 0.14% (second compound 3.16 µM, first compound 0.001 µM); 0.99% (second compound 3.16 µM, first compound 0.00316 µM); 0.21% (second compound 3.16 µM, first compound 0.01 µM); 2.25% (second compound 3.16 µM, first compound 0.0316 µM); 5.87% (second compound 3.16 µM, first compound 0.1 µM). The viability, T/C reads like this: (second compound 10 µM, first compound 0.000316 µM) 0.12%; (second compound 10 µM, first compound 0.001 µM) 0.17%; (second compound 10 µM, first compound 0.00316 µM) 0.16%; (second compound 10 µM, first compound 0.01 µM) 0.15%; (second compound 10 µM, first compound 0.0316 µM) 0.68%; (second compound 10 µM, first compound 0.1 µM) 0.19%.
In the case of `COc1cc2nc(C)nc(NC(C)c3cc(N)cc(C(F)(F)F)c3)c2cc1OC1CCOC1` (stereo unspecified), for the setting “compound alone, run of 07/12/2021”, the IC50 is > 10 µM and 9.67 µM.

Usually IC50 stands for the concentration that inhibits the measured activity by half. A word on the viability, T/C: it is the result in the treated group divided by that in the control group, in per cent.
